Data from ChEMBL document CHEMBL1201862, “PubChem BioAssay data set” (2004).
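Results reflect a 48-hour exposure of cells in 96-well plates to compound at five concentrations. GI50 marks 50% less growth.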 The source made the active and inactive calls. Cut-off read from the data, not from the text of the source: active = GI50 up to about 1.1 µM and inactive = higher.

Experiments:
Test in all cases: inhibition of tumour cell growth, NCI panel, 48 h
[1] = test system: NCI-H460
[2] = test system: SK-MEL-5
[3] = test system: SK-OV-3
[4] = test system: SR
[5] = test system: OVCAR-5
[6] = test system: HL-60
[7] = test system: HT-29
[8] = test system: DU-145
[9] = test system: M14
[10] = test system: HCT-116
[11] = test system: SF-295
[12] = test system: CAKI-1
[13] = test system: T47D
[14] = test system: SF-268
[15] = test system: LOX IMVI
[16] = test system: HOP-62
[17] = test system: SW-620
[18] = test system: PC-3
[19] = test system: RXF 393
[20] = test system: EKVX
[21] = test system: NCI-H226
[22] = test system: Hs-578T
[23] = test system: MDA-MB-435
[24] = test system: NCI-H23
[25] = test system: HOP-92
[26] = test system: TK-10
[27] = test system: MDA-MB-231
[28] = test system: UACC-257
[29] = test system: OVCAR-4
[30] = test system: SK-MEL-2
[31] = test system: MDA-N
[32] = test system: U-251
[33] = test system: CCRF-CEM
[34] = test system: IGROV-1
[35] = test system: OVCAR-3
[36] = test system: KM12
[37] = test system: A498
[38] = test system: ACHN
[39] = test system: SK-MEL-28
[40] = test system: MOLT-4
[41] = test system: NCI/ADR-RES
[42] = test system: MCF7
[43] = test system: SF-539
[44] = test system: UO-31
[45] = test system: 786-0
[46] = test system: HCT-15
[47] = test system: OVCAR-8
[48] = test system: K562
[49] = test system: NCI-H522
[50] = test system: RPMI-8226
[51] = test system: HCC 2998
[52] = test system: Malme-3M
[53] = test system: SNB-19
[54] = test system: SNB-75
[55] = test system: UACC-62
[56] = test system: A549
[57] = test system: COLO 205
[58] = test system: SN12C

Q: With `CC1=CC(=O)CC(C)(C)C1/C=C/C(C)=C/C=C/C(C)=C/C=C/C=C(C)/C=C/C=C(C)/C=C/C1C(C)=CC(=O)CC1(C)C` (stereo not drawn) as the molecule, how does the GI50 [1] read?
A: 86.1 µM (inactive)

Q: What about the GI50 [2] of the same molecule?
A: 45.8 µM (inactive)

Q: And the GI50 [3]?
A: > 100 µM (inactive)

Q: And the GI50 [4]?
A: 66.1 µM (inactive)

Q: What about the GI50 [5] of the same molecule?
A: 78.5 µM (inactive)

Q: What about the GI50 [6] of the same molecule?
A: 38.5 µM (inactive)

Q: And the GI50 [7]?
A: 35.7 µM (inactive)

Q: And the GI50 [8]?
A: > 100 µM (inactive)

Q: What about the GI50 [9] of the same molecule?
A: 40.4 µM (inactive)

Q: What about the GI50 [10] of the same molecule?
A: 20.2 µM (inactive)

Q: And the GI50 [11]?
A: 92 µM (inactive)

Q: And the GI50 [12]?
A: 58.7 µM (inactive)

Q: And the GI50 [13]?
A: > 100 µM (inactive)

Q: And the GI50 [14]?
A: 44.4 µM (inactive)

Q: And the GI50 [15]?
A: 29.3 µM (inactive)

Q: What about the GI50 [16] of the same molecule?
A: 42 µM (inactive)

Q: What about the GI50 [17] of the same molecule?
A: 23.2 µM (inactive)

Q: And the GI50 [18]?
A: 41.1 µM (inactive)

Q: What about the GI50 [19] of the same molecule?
A: > 100 µM (inactive)

Q: And the GI50 [20]?
A: 92.9 µM (inactive)

Q: And the GI50 [21]?
A: > 100 µM (inactive)

Q: What about the GI50 [22] of the same molecule?
A: 30.8 µM (inactive)

Q: And the GI50 [23]?
A: 23.4 µM (inactive)

Q: And the GI50 [24]?
A: 36.3 µM (inactive)

Q: And the GI50 [25]?
A: 23.3 µM (inactive)

Q: And the GI50 [26]?
A: 77.1 µM (inactive)

Q: What about the GI50 [27] of the same molecule?
A: > 100 µM (inactive)

Q: And the GI50 [28]?
A: 61.2 µM (inactive)

Q: And the GI50 [29]?
A: 41.1 µM (inactive)

Q: And the GI50 [30]?
A: > 100 µM (inactive)

Q: And the GI50 [31]?
A: 35.1 µM (inactive)

Q: And the GI50 [32]?
A: 38.7 µM (inactive)

Q: What about the GI50 [33] of the same molecule?
A: 21.6 µM (inactive)

Q: And the GI50 [34]?
A: 31.3 µM (inactive)

Q: And the GI50 [35]?
A: 30.5 µM (inactive)

Q: And the GI50 [36]?
A: 37.2 µM (inactive)

Q: And the GI50 [37]?
A: > 100 µM (inactive)

Q: What about the GI50 [38] of the same molecule?
A: 30 µM (inactive)

Q: And the GI50 [39]?
A: > 100 µM (inactive)

Q: And the GI50 [40]?
A: 50.1 µM (inactive)

Q: And the GI50 [41]?
A: 72.6 µM (inactive)

Q: And the GI50 [42]?
A: 29.2 µM (inactive)

Q: What about the GI50 [43] of the same molecule?
A: 45.5 µM (inactive)

Q: And the GI50 [44]?
A: 67.5 µM (inactive)

Q: What about the GI50 [45] of the same molecule?
A: 34.4 µM (inactive)

Q: And the GI50 [46]?
A: 27 µM

Q: And the GI50 [47]?
A: 20.1 µM (inactive)

Q: And the GI50 [48]?
A: 37.2 µM (inactive)

Q: What about the GI50 [49] of the same molecule?
A: 20.8 µM (inactive)

Q: What about the GI50 [50] of the same molecule?
A: 25.2 µM (inactive)

Q: And the GI50 [51]?
A: 53.1 µM (inactive)

Q: How did the GI50 [52] turn out when `CN(C)/C=N/NC(=O)/C(C#N)=C/N(C)C` was run?
A: 75.3 µM (inactive)

Q: What about the GI50 [1] of the same molecule?
A: > 100 µM (inactive)

Q: And the GI50 [2]?
A: > 100 µM (inactive)

Q: And the GI50 [3]?
A: > 100 µM (inactive)

Q: And the GI50 [4]?
A: > 100 µM (inactive)

Q: And the GI50 [5]?
A: > 100 µM (inactive)

Q: And the GI50 [6]?
A: > 100 µM (inactive)

Q: What about the GI50 [7] of the same molecule?
A: > 100 µM (inactive)

Q: What about the GI50 [8] of the same molecule?
A: > 100 µM (inactive)

Q: And the GI50 [9]?
A: > 100 µM (inactive)

Q: What about the GI50 [10] of the same molecule?
A: > 100 µM (inactive)

Q: What about the GI50 [53] of the same molecule?
A: > 100 µM (inactive)

Q: And the GI50 [11]?
A: > 100 µM (inactive)

Q: What about the GI50 [54] of the same molecule?
A: > 100 µM (inactive)

Q: And the GI50 [12]?
A: > 100 µM (inactive)

Q: What about the GI50 [13] of the same molecule?
A: > 100 µM (inactive)

Q: What about the GI50 [14] of the same molecule?
A: > 100 µM (inactive)

Q: And the GI50 [15]?
A: > 100 µM (inactive)

Q: And the GI50 [16]?
A: > 100 µM (inactive)

Q: And the GI50 [55]?
A: > 100 µM (inactive)

Q: What about the GI50 [17] of the same molecule?
A: > 100 µM (inactive)

Q: And the GI50 [56]?
A: > 100 µM (inactive)

Q: And the GI50 [18]?
A: > 100 µM (inactive)

Q: What about the GI50 [19] of the same molecule?
A: > 100 µM (inactive)

Q: And the GI50 [20]?
A: > 100 µM (inactive)

Q: What about the GI50 [21] of the same molecule?
A: > 100 µM (inactive)

Q: What about the GI50 [22] of the same molecule?
A: > 100 µM (inactive)

Q: And the GI50 [23]?
A: > 100 µM (inactive)

Q: What about the GI50 [24] of the same molecule?
A: > 100 µM (inactive)

Q: What about the GI50 [26] of the same molecule?
A: > 100 µM (inactive)

Q: And the GI50 [27]?
A: > 100 µM (inactive)

Q: And the GI50 [28]?
A: > 100 µM (inactive)

Q: And the GI50 [57]?
A: > 100 µM (inactive)

Q: And the GI50 [29]?
A: > 100 µM (inactive)

Q: What about the GI50 [30] of the same molecule?
A: > 100 µM (inactive)

Q: What about the GI50 [31] of the same molecule?
A: > 100 µM (inactive)

Q: And the GI50 [58]?
A: > 100 µM (inactive)

Q: And the GI50 [32]?
A: > 100 µM (inactive)

Q: What about the GI50 [33] of the same molecule?
A: > 100 µM (inactive)

Q: And the GI50 [34]?
A: > 100 µM (inactive)

Q: What about the GI50 [35] of the same molecule?
A: > 100 µM (inactive)

Q: And the GI50 [36]?
A: > 100 µM (inactive)

Q: And the GI50 [37]?
A: > 100 µM (inactive)

Q: And the GI50 [38]?
A: > 100 µM (inactive)

Q: And the GI50 [39]?
A: > 100 µM (inactive)

Q: What about the GI50 [40] of the same molecule?
A: > 100 µM (inactive)

Q: What about the GI50 [41] of the same molecule?
A: > 100 µM (inactive)

Q: And the GI50 [42]?
A: > 100 µM (inactive)

Q: And the GI50 [43]?
A: 64.7 µM (inactive)

Q: What about the GI50 [44] of the same molecule?
A: > 100 µM (inactive)

Q: What about the GI50 [45] of the same molecule?
A: > 100 µM (inactive)

Q: And the GI50 [46]?
A: > 100 µM

Q: And the GI50 [47]?
A: > 100 µM (inactive)

Q: And the GI50 [48]?
A: > 100 µM (inactive)

Q: What about the GI50 [49] of the same molecule?
A: > 100 µM (inactive)

Q: And the GI50 [50]?
A: > 100 µM (inactive)

Q: And the GI50 [51]?
A: > 100 µM (inactive)
